From patent US12606528B2, “Methods and materials for inhibiting NF-kB activity” (University of Pittsburgh - Of the Commonwealth System of …, priority 2019, dated 2026)
Like-named read-outs stand apart in the source and are kept apart here.

Columns and labels:
NF-κB = NF-κB assay: THP1-NF-κB-LUC cells, LPS-stimulated secreted luciferase; assay type: cell-based; conditions: THP1-NF-κB-LUC cells, read-out: IC50 (NF-κB assay)
Procedure, shortened: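 THP1-NF-κB-LUC cells (25k/well) were pretreated with compounds for 2 h, then stimulated with LPS (10 ng/mL) for 18 h. Secreted luciferase was measured and normalized to vehicle, and IC50 was fitted from the concentration series.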

TNF release = assay: TNF assay: TNF release from LPS-stimulated human PBMCs (TNF ELISA); assay type: cell-based; conditions: PBMC, read-out: IC50 (TNF assay)
Procedure, shortened: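 Human PBMCs at 10k/well pretreated with compound dilutions 2 h, then stimulated with LPS (10 ng/mL) for 18 h. TNF in supernatants quantified by ELISA; IC50 for inhibition of TNF release fitted from concentration–response.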

[1] = compounds 2 hours before LPS (10 ng/mL) for 18 hours, secreted luciferase
[2] = human PBMCs, compounds 2 hours before LPS (10 ng/ml) for 18 hours, supernatant TNF ELISA
[3] = LPS-stimulated human PBMCs, TNF ELISA

| Structure (SMILES) | IC50 (NF-κB; [1]) [µM] | IC50 (TNF release; [2]) [µM] | IC50 (NF-κB; LPS-stimulated) [µM] | IC50 (TNF release; [3]) [µM] |
| --- | --- | --- | --- | --- |
| CCS(=O)(=O)c1cc2c(c(S(=O)(=O)Nc3ccccc3)c1)OCC(=O)N2 [BC19437] | < 0.1 | > 10 |  |  |
| CCS(=O)(=O)c1cc2c(c(S(=O)(=O)Nc3ccc(OC)cc3)c1)OCC(=O)N2 [BC19438] | < 0.1 | > 10 |  |  |
| CCc1cccc(NS(=O)(=O)c2cc(S(=O)(=O)CC)cc3c2OCC(=O)N3)c1 [BC19439] | < 0.1 | > 10 |  |  |
| CCS(=O)(=O)c1cc2c(c(S(=O)(=O)Nc3cccc(F)c3)c1)OCC(=O)N2 [BC19440] | < 0.1 | > 10 |  |  |
| CCS(=O)(=O)c1cc2c(c(S(=O)(=O)Nc3cccc(Cl)c3)c1)OCC(=O)N2 [BC19441] | < 0.1 | > 10 |  |  |
| CCS(=O)(=O)c1cc2c(c(S(=O)(=O)Nc3ccc(F)cc3Cl)c1)OCC(=O)N2 [BC19442] | 0.1 to 1 | > 10 |  |  |
| CCS(=O)(=O)c1cc2c(c(S(=O)(=O)Nc3ccc(F)cc3)c1)OCC(=O)N2 [BC19443] | < 0.1 | > 10 |  |  |
| Cn1cnnc1-c1ccc2nc(-c3ccc(F)cc3F)c(-c3ccccc3)nc2c1 [BC19444] |  |  | 0.1 to 1 | > 10 |
| CN1CCN(C(=O)c2ccc3nc(-c4ccc(OC(F)(F)F)cc4)c(-c4ccc(OC(F)(F)F)cc4)nc3c2)CC1 [BC19445] |  |  | > 10 | > 10 |
| CN1CCN(C(=O)c2ccc3nc(-c4ccc(C#N)cc4)c(-c4ccc(C#N)cc4)nc3c2)CC1 [BC19446] |  |  | > 10 | > 10 |
| CNC(=O)c1ccc2nc(-c3ccc(OC(F)(F)F)cc3)c(-c3ccc(OC(F)(F)F)cc3)nc2c1 [BC19447] |  |  | > 10 | > 10 |
| Oc1ccc2nc(-c3ccc(F)cc3)c(-c3ccc(F)cc3)nc2n1 [BC19448] |  |  | 0.1 to 1 | > 10 |
| O=C(O)c1ccc2nc(-c3ccc(OC(F)(F)F)cc3)c(-c3ccc(OC(F)(F)F)cc3)nc2c1 [BC19449] |  |  | > 10 | > 10 |
| CN1CCN(C(=O)c2ccc3nc(-c4ccc(Cl)cc4)c(-c4ccc(Cl)cc4)nc3c2)CC1 [BC19450] |  |  | 1 to 10 | > 10 |
| C#CCNC(=O)c1ccc2nc(-c3ccc(Cl)cc3)c(-c3ccc(Cl)cc3)nc2c1 [BC19451] |  |  | 0.1 to 1 | > 10 |
| O=C(NCCO)c1ccc2nc(-c3ccc(Cl)cc3)c(-c3ccc(Cl)cc3)nc2c1 [BC19452] |  |  | 0.1 to 1 | > 10 |
| O=C(NCCO)c1ccc2nc(-c3ccc(OC(F)(F)F)cc3)c(-c3ccc(OC(F)(F)F)cc3)nc2c1 [BC19453] |  |  | > 10 | > 10 |
| O=c1[nH]ccc2cc([S+]([O-])c3ccccc3)ccc12 (stereo not shown) [BC19454] | > 10 | > 10 |  |  |
| COc1ccc(S(=O)(=O)c2cnccc2O)cc1OC [BC19455] | > 10 | > 10 |  |  |

| Structure (SMILES) | IC50 (NF-κB; [1]) [µM] | IC50 (TNF release; [2]) [µM] | IC50 (NF-κB; LPS-stimulated) [µM] | IC50 (TNF release; [3]) [µM] |
| --- | --- | --- | --- | --- |
| O=S(=O)(c1ccc(Cl)cc1)c1cnccc1O [BC19456] | > 10 | > 10 |  |  |
| COc1ccc(S(=O)(=O)c2cnccc2O)cc1 [BC19457] | > 10 | > 10 |  |  |
| Cc1ccc([S+]([O-])c2cnccc2O)c(C)c1 (stereo not shown) [BC19458] | > 10 | > 10 |  |  |
| O=S(=O)(c1ccc(F)cc1)c1cnccc1O [BC19459] | > 10 | > 10 |  |  |
| O=S(=O)(c1ccccc1)c1cnccc1O [BC19461] | > 10 | > 10 |  |  |
| COc1cccc(-c2nc(S(=O)(=O)c3ccc(Cl)cc3)c([S+]([O-])CC3CC3)[nH]2)c1 (stereo not shown) [BC19462] |  |  | 1 to 10 | > 10 |
| CC(C)C[S+]([O-])c1oc(-c2ccc(Cl)cc2)nc1S(=O)(=O)c1ccc(Cl)cc1 (stereo not shown) [BC19463] |  |  | < 0.1 | 0.1 to 1 |
| O=S(=O)(c1ccc(Cl)cc1)c1nc(-c2ccc(Cl)cc2)oc1[S+]([O-])CC1CC1 (stereo not shown) [BC19464] |  |  | 0.1 to 1 | < 0.1 |
| CCC[S+]([O-])c1[nH]c(-c2ccccc2)nc1S(=O)(=O)c1ccc(Cl)cc1 (stereo not shown) [BC19465] |  |  | 1 to 10 | > 10 |
| O=S(=O)(c1ccc(Cl)cc1)c1nc(-c2ccccc2)[nH]c1[S+]([O-])CC1CC1 (stereo not shown) [BC19466] |  |  | 1 to 10 | > 10 |
| O=S(=O)(CC1CC1)c1[nH]c(-c2ccccc2)nc1S(=O)(=O)c1ccc(Cl)cc1 [BC19467] |  |  | 1 to 10 | 1 to 10 |
| COCCS(=O)(=O)c1[nH]c(-c2ccccc2)nc1S(=O)(=O)c1ccc(Cl)cc1 [BC19468] |  |  | 1 to 10 | > 10 |
| O=S(=O)(c1ccc(F)cc1)c1nc(-c2ccccc2)[nH]c1[S+]([O-])CC1CC1 (stereo not shown) [BC19469] |  |  | 1 to 10 | > 10 |
| O=S(=O)(CC1CC1)c1[nH]c(-c2ccccc2)nc1S(=O)(=O)c1ccc(F)cc1 [BC19470] |  |  | > 10 | > 10 |
| CS(=O)(=O)c1sc(-c2ccccc2)nc1S(=O)(=O)c1ccc(Cl)cc1 [BC19471] |  |  | 1 to 10 | 1 to 10 |
| CCC[S+]([O-])c1sc(-c2ccccc2)nc1S(=O)(=O)c1ccc(Cl)cc1 (stereo not shown) [BC19472] |  |  | > 10 | > 10 |
| CC(C)CS(=O)(=O)c1sc(-c2ccccc2)nc1S(=O)(=O)c1ccc(Cl)cc1 [BC19473] |  |  | > 10 | > 10 |
| CN(C)CC[S+]([O-])c1sc(-c2ccccc2)nc1S(=O)(=O)c1ccc(Cl)cc1 (stereo not shown) [BC19474] |  |  | 1 to 10 | > 10 |
| CCCS(=O)(=O)c1sc(-c2cccc(F)c2)nc1S(=O)(=O)c1ccc(Cl)cc1 [BC19475] |  |  | 1 to 10 | 1 to 10 |

| Structure (SMILES) | IC50 (NF-κB; [1]) [µM] | IC50 (TNF release; [2]) [µM] | IC50 (NF-κB; LPS-stimulated) [µM] | IC50 (TNF release; [3]) [µM] |
| --- | --- | --- | --- | --- |
| CC(C)S(=O)(=O)c1sc(-c2cccc(F)c2)nc1S(=O)(=O)c1ccc(Cl)cc1 [BC19476] |  |  | > 10 | > 10 |
| CC(C)CS(=O)(=O)c1sc(-c2cccc(F)c2)nc1S(=O)(=O)c1ccc(Cl)cc1 [BC19477] |  |  | > 10 | > 10 |
| O=S(=O)(c1ccc(Cl)cc1)c1nc(-c2cccc(F)c2)sc1[S+]([O-])CC1CC1 (stereo not shown) [BC19478] |  |  | > 10 | 1 to 10 |
| COCC[S+]([O-])c1sc(-c2ccc(Cl)cc2)nc1S(=O)(=O)c1ccc(Cl)cc1 (stereo not shown) [BC19479] |  |  | > 10 | > 10 |
| CC(C)[S+]([O-])c1sc(-c2ccc(Cl)cc2)nc1S(=O)(=O)c1ccc(Cl)cc1 (stereo not shown) [BC19480] |  |  | > 10 | > 10 |
| CS(=O)(=O)c1cc2c(c(S(=O)(=O)Nc3ccc(F)c(F)c3)c1)OCC(=O)N2 [BC19481] | < 0.1 | > 10 |  |  |
| CS(=O)(=O)c1cc2c(c(S(=O)(=O)Nc3ccccc3)c1)OCC(=O)N2 [BC19482] | 0.1 to 1 | > 10 |  |  |
| CS(=O)(=O)c1cc2c(c(S(=O)(=O)Nc3ccc(Cl)cc3)c1)OCC(=O)N2 [BC19483] | < 0.1 | > 10 |  |  |
| CCc1ccc(NS(=O)(=O)c2cc(S(C)(=O)=O)cc3c2OCC(=O)N3)cc1 [BC19484] | < 0.1 | > 10 |  |  |
| COc1ccc(NS(=O)(=O)c2cc(S(C)(=O)=O)cc3c2OCC(=O)N3)cc1 [BC19485] | < 0.1 | > 10 |  |  |
| Cc1ccc(NS(=O)(=O)c2cc(S(C)(=O)=O)cc3c2OCC(=O)N3)cc1Cl [BC19486] | < 0.1 | > 10 |  |  |
| CCc1cccc(NS(=O)(=O)c2cc(S(C)(=O)=O)cc3c2OCC(=O)N3)c1 [BC19487] | 0.1 to 1 | > 10 |  |  |
| Cc1ccc(NS(=O)(=O)c2cc(S(C)(=O)=O)cc3c2OCC(=O)N3)cc1 [BC19488] | < 0.1 | > 10 |  |  |
| Cc1c(Cl)cc2c(c1S(=O)(=O)Nc1ccc(F)c(F)c1)OCC(=O)N2 [BC19489] | < 0.1 | > 10 |  |  |
| Cc1c(Cl)cc2c(c1S(=O)(=O)Nc1ccc(OC(F)(F)F)cc1)OCC(=O)N2 [BC19490] | < 0.1 | > 10 |  |  |
| CCS(=O)(=O)c1cc2c(c(S(=O)(=O)Nc3ccc(Cl)cc3)c1)OCC(=O)N2 [BC19491] | < 0.1 | > 10 |  |  |
| CCc1ccc(NS(=O)(=O)c2cc(S(=O)(=O)CC)cc3c2OCC(=O)N3)cc1 [BC19492] | < 0.1 | > 10 |  |  |
| CCS(=O)(=O)c1cc2c(c(S(=O)(=O)Nc3ccc(C(C)C)cc3)c1)OCC(=O)N2 [BC19493] | < 0.1 | > 10 |  |  |
